Measurements taken from ChEMBL document CHEMBL4834431, “Design of Dimeric Bile Acid Derivatives as Potent and Selective Human NTCP Inhibitors” (J Med Chem, 2021).
The source made the active and inactive calls. The rule behind the calls is not given here.

Columns and labels:
Hepatitis B virus [1] = assay: Antiviral activity against HBV infected in human HepG2-NTCP cells assessed as reduction in HBeAg secretion at 31.25 to 2000 nM incubated for 24 hrs followed by replacement with fresh medium and measured at day 5 post infection by ELISA; format: functional, organism-based; conditions: dose 31.25-2000 nM
[2] = biological target: T1, Hepatic sodium/bile acid cotransporter (Homo sapiens, UniProt Q14973); assay: Inhibition of human NTCP-mediated [3H]-TCA uptake expressed in human HepG2 cells pretreated for 2 hrs followed by [3H]-TCA addition in absence of FBS; format: cell-based
T1 sequence (Q14973 whole entry): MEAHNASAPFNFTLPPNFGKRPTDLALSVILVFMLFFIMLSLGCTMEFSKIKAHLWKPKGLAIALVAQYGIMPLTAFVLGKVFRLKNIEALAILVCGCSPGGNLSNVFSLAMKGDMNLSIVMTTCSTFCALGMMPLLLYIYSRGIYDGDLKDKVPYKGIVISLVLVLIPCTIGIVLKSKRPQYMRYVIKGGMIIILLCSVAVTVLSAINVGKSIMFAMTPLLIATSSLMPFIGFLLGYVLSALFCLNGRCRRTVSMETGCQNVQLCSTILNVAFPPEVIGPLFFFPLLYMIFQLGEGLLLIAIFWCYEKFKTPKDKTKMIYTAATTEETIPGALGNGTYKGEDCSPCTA

HepG2 [3] = assay: Cytotoxicity against human HepG2 cells expressing NTCP assessed as reduction in cell viability at 10 uM after 48 hrs by alamar blue assay; format: cell-based; conditions: hepg2, 48 h
[4] = biological target: T1, Hepatic sodium/bile acid cotransporter; assay: Inhibition of human NTCP-mediated [3H]-TCA uptake expressed in human HepG2 cells at 0.4 to 10 uM incubated for 10 mins by liquid scintillation counter analysis; format: cell-based; conditions: hepg2, 10 min, dose 0.4-10 µM
Hepatitis B virus [5] = assay: Antiviral activity against HBV infected in human HepG2-NTCP cells assessed as reduction in HBeAg secretion at 111 to 1000 nM incubated for 24 hrs followed by replacement with fresh medium and measured at day 5 post infection by ELISA; format: functional, organism-based; conditions: dose 111-1000 nM
Hepatitis B virus [6] = assay: Antiviral activity against HBV infected in human HepG2-NTCP cells assessed as reduction in intracellular HBV RNA level at 1 uM by qPCR analysis; format: functional, organism-based
HepG2 [7] = assay: Effect on NTCP surface expression in human HepG2-NTCP cells assessed as reduction in NTCP surface expression level after 2 hrs by immunostaining based assay; format: functional, cell-based
HepG2 [8] = assay: Inhibition of tree shrew NTCP-mediated [3H]-TCA uptake expressed in human HepG2 cells; format: cell-based; conditions: Scandentia
Hepatitis B virus [9] = assay: Antiviral activity against HBV infected in human HepG2-NTCP cells assessed as reduction in HBeAg secretion at 1 uM compound added along with viral infection by ELISA; format: functional, organism-based
HepG2 [10] = assay: Inhibition of tree shrew NTCP-mediated NQ-064 uptake expressed in human HepG2 cells; format: cell-based; conditions: Scandentia
HepG2 [11] = assay: Inhibition of monkey NTCP-mediated NQL-064 uptake expressed in human HepG2 cells; format: cell-based; conditions: Macaca mulatta
[12] = biological target: Hepatic sodium/bile acid cotransporter (Homo sapiens, UniProt Q14973); assay: Inhibition of human NTCP residues (157 to 165) replaced with monkey NTCP -mediated [3H]-TCA uptake expressed in human HepG2 cells; format: cell-based
[13] = biological target: T2, Hepatic sodium/bile acid cotransporter (Mus musculus, UniProt O08705); assay: Inhibition of mouse NTCP-mediated NQL-064 uptake expressed in human HepG2 cells; format: cell-based
T2 sequence (O08705 whole entry): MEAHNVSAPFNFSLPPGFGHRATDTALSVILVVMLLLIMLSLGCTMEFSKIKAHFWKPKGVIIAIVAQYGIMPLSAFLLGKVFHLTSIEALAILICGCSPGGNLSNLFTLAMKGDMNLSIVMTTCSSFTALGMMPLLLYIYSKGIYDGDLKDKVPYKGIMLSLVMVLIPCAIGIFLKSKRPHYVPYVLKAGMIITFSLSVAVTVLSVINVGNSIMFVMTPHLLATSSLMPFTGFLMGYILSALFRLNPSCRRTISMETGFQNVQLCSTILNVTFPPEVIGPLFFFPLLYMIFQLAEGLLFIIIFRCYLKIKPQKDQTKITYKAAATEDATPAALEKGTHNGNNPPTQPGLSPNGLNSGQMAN

[14] = biological target: T1, Hepatic sodium/bile acid cotransporter; assay: Inhibition of human NTCP-mediated NQL-064 uptake expressed in human HepG2 cells; format: cell-based
[15] = Inhibition of monkey NTCP-mediated [3H]-TCA uptake expressed in human HepG2 cells; format: cell-based; conditions: Macaca mulatta

SMILES	Activity (Hepatitis B virus [1])	IC50 [2] [µM]	Activity (HepG2 [3])	inhibition (INH) [4]	Activity (Hepatitis B virus [5])	Activity (Hepatitis B virus [6])	Activity (HepG2 [7])	inhibition (HepG2 [8])	Activity (Hepatitis B virus [9])	inhibition (HepG2 [10])	inhibition (HepG2 [11])	IC50 [12] [µM]	inhibition (INH) [13]	inhibition (INH) [14]	IC50 [15] [µM]
C[C@H](CCC(=O)O[C@@H]1CC[C@@]2(C)[C@@H](C1)C[C@H](O)[C@@H]1[C@@H]2CC[C@]2(C)[C@@H]([C@H](C)CCC(=O)NCCS(=O)(=O)O)CC[C@@H]12)[C@H]1CC[C@H]2[C@@H]3[C@@H](O)C[C@@H]4C[C@H](O)CC[C@]4(C)[C@H]3CC[C@]12C	Active	0.0362	Non-Toxic	Active	Active	Active	inactive	Active	Active						
C[C@H](CCC(=O)NCCS(=O)(=O)O)[C@H]1CC[C@H]2[C@@H]3[C@@H](O)C[C@@H]4C[C@H](NC(=O)CCCC(=O)N[C@@H]5CC[C@@]6(C)[C@@H](C5)C[C@H](O)[C@@H]5[C@@H]6CC[C@]6(C)[C@@H]([C@H](C)CCC(=O)NCCS(=O)(=O)O)CC[C@@H]56)CC[C@]4(C)[C@H]3CC[C@]12C			Non-Toxic		Active	Active	inactive	inactive	Active	inactive	inactive	8.35	Not Active	Active	4.77
